This test has as its target MurC (Escherichia coli, UniProt P17952). Nature of the test: Inhibition of MurC, colorimetric malachite green method. Type of test: biochemical, bacterial. Conditions: 0.25 h; residual activity at 100 µM; Table 2; read-out: MurC RA (%). The method, then:
Inhibition of Mur enzymes was monitored with the colorimetric malachite green method, which measured orthophosphate formed during reaction. The mixtures with a final volume of 50 µL contained:
MurC: 50 mM HEPES-NaOH, pH 8.0, 5 mM MgCl2, 0.005% Triton X-114, 120 µM L-Ala, 120 µM UDP-N-acetyl-muramic acid, 450 µM ATP, purified MurC, and 50 or 100 µM of each compound tested.
All compounds were soluble in the assay mixtures containing 5% DMSO (v/v). After incubation for 15 min (20 min for DdlB) at 37 °C, the enzyme reaction was terminated by addition of Biomol® reagent (100 µL) and absorbance was measured after 5 min at 650 nm (Synergy™ H4 microplate reader; BioTek Instruments, Inc., BioTek Gen5 Data Analysis Software, version 2.9, Santa Clara, CA, USA). All experiments were performed in duplicate.

Chain of MurC (P17952 whole entry): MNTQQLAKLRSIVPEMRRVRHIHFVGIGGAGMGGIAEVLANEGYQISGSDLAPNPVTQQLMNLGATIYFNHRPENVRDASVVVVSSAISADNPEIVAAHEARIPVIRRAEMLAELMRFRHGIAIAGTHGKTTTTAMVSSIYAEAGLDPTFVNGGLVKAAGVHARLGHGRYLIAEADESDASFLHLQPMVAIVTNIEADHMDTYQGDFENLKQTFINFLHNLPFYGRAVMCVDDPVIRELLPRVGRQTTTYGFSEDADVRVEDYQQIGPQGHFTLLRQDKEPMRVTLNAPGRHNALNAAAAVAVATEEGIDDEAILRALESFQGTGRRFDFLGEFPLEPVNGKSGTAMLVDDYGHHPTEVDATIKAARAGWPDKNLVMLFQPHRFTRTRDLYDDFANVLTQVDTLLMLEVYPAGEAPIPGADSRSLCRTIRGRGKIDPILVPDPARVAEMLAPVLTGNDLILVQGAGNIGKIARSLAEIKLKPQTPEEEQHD

Regarding `CCCCc1nc2ccn(Cc3ccccc3C(=O)OCC)c(=O)c2n1Cc1ccc(-c2ccccc2C#N)cc1` [Compound 18], the remaining activity at 100 µM was found to be 58%.

These data come from paper PMC9320114 (Molecules, 2022).
